Results from US9040521B2, “Methods and compositions for modulating tau levels” (THE J. DAVID GLADSTONE INSTITUTES, priority 2009, dated 2015).

Columns and labels:
[1] = system: tau acetylation in primary neurons; test: western blot of ac-tau, t-tau and p-tau in primary cortical neurons; format: cell-based, rat
Description: (§1) Primary cultures were established from cortices of Sprague-Dawley rat pups (Charles River Laboratories) or SIRT1^F/F mice on postnatal day 0 or 1. Purified cells were plated at 160,000 cells/ml in Neurobasal medium supplemented with B27 (Invitrogen) on poly-ornithine coated plates. All treatments were performed at 7-13 DIV in Neurobasal medium supplemented with N2 (Invitrogen) unless noted otherwise.
(§2) Cells or human or mouse brain tissues were lysed in RIPA buffer containing protease inhibitor cocktail (Sigma), 1 mM phenylmethyl sulfonyl fluoride (PMSF) (Sigma), phosphatase inhibitor cocktail (Roche), and HDAC inhibitors, including 5 mM nicotinamide (Sigma) and 1 μM trichostatin A (Sigma). After sonication, lysates from human or mouse brain tissues were centrifuged at 170,000 g at 4° C. for 15 min and at 18,000 g at 4° C. for 10 min. Supernatants were collected and analyzed by western blot. Bands in immunoblots were visualized by enhanced chemiluminescence (Pierce) and quantified by densitometry and Quantity One 4.0 software (Bio-Rad, Hercules, Calif.).

[2] = system: turnover of endogenous tau in primary neurons; test: tau turnover in primary neurons treated with cycloheximide; format: cell-based, rat
Description: as §1, §2
It was then directly examined whether enhancing acetylation of tau slows the turnover of endogenous tau. Primary neurons were treated with EX527 to enhance tau acetylation and with cycloheximide (CHX) to inhibit translation of new proteins. […] Consistent with this notion, ac-tau appears to be degraded slower than that of t-tau.

[3] = system: tau ubiquitination in HEK293T cells; test: in vivo ubiquitination assay in HEK293T cells; format: cell-based, human
Description: Procedures were modified from a published study. Oh et al. (2009) Nat Cell Biol 11:295. HEK293T cells were transfected with expression vectors encoding FLAG-tagged human tau and HA-ubiquitin with or without Myc-SIRT1 (wildtype or H363Y mutant). After 2 h of incubation, cells were treated with EX527, resveratrol, or dimethylsulfoxide (DMSO) in Dulbecco's modified Eagle's medium and incubated for 20 h. MG-132 (20 μM) was added and incubated for 4 h. Cells were lysed in ubiquitination buffer (20 mM Tris-HCl, pH 7.5, 0.1 mM EDTA, 0.2% Triton X-100, 150 mM NaCl, and protease inhibitor cocktail). Supernatant proteins were immunoprecipitated with FLAG M2 agarose beads (Sigma) for 3 h at 4° C. Reactions were washed at least three times with ubiquitination buffer and analyzed by SDS-PAGE and western blot with anti-HA antibody (Cell Signaling Technology).

tau transcripts = test: real-time RT-PCR of tau transcripts in primary neurons; format: cell-based, rat; conditions: treatment for 8 h
Description: as §1

[4] = system: six other acetyltransferases (serotonin N-acetyltransferase, pCAF, GCN5, Rtt109, Sas, MOZ); conditions: C646 at 10 μM, cell-free; cited from earlier work
[5] = system: AT8-positive p-tau in primary neurons expressing hTauP301L; test: p-tau in primary neurons expressing hTauP301L; format: cell-based; conditions: 20 μM, DIV=12
Description: as §1
Lentivirus was generated, purified, and used for infection as described. Chen et al. (2005) supra. Recombinant lentivirus was produced by co-transfection of the shuttle vector (FUGW), two helper plasmids, delta8.9 packaging vector, and VSV-G envelope vector into 293T cells and purified by ultracentrifugation. Viral titers were measured by p24 enzyme-linked immunosorbent assays at the Gladstone-UCSF Laboratory of Clinical Virology.
as §2, with “After sonication, lysates from human or mouse brain tissues were centrifuged at 170,000 g at 4° C. for 15 min and at 18,000 g at 4° C. for 10 min.” left out

[6] = EX527 50 μM, rat primary neurons DIV=10

NC(=O)C1CCCc2c1[nH]c1ccc(Cl)cc21 (stereo not shown) [EX527]
AT8-positive p-tau [1, 6]: markedly increased | ac-tau [1, 6]: markedly increased | levels of ac-tau relative to t-tau [1, 6]: significantly increased | levels of p-tau relative to t-tau [1, 6]: significantly increased | t-tau [1, 6]: markedly increased | turnover of ac-tau ([2]; 10 μM, CHX, primary neurons): blocked the turnover | accumulation of ac-tau ([2]; 50 μM, CHX, primary neurons): more pronounced accumulation | half-life of t-tau (tau turnover) ([2]; 10-50 μM, CHX 0-8 h, rat primary neurons DIV=8): increased the half-life of t-tau in a dose-dependent manner | degradation of AT8-positive p-tau ([2]; 10-50 μM, CHX, primary neurons): blocked the degradation | ac-tau levels ([3]; 1-50 μM, HEK293T cells): elevated | polyubiquitination of tau ([3]; 1-50 μM, HEK293T cells, with MG132): prevented polyubiquitination of tau in a dose-dependent manner

CC1=NN(c2ccc(C(=O)O)cc2)C(=O)/C1=C\c1ccc(-c2cc(C)c(C)cc2[N+](=O)[O-])o1 [Compound C646]
t-tau levels ([1]; 20 μM, 2 h, primary cortical neurons DIV=9): without affecting | levels of t-tau ([1]; 20 μM, 8 h, primary rat cortical neurons): remained unchanged | levels of t-tau ([1]; 20 μM, 20 h, primary cortical neurons): lowered | tau phosphorylated at serine 202 (AT8-positive p-tau) ([1]; 20 μM, within 2 h, primary cortical neurons): abolished | ac-tau ([1]; 20 μM, within 2 h, primary cortical neurons DIV=9): eliminated | levels of ac-tau ([1]; 20 μM, within 8 h, primary rat cortical neurons): drastically reduced | tau transcripts (tau transcripts): did not suppress | inhibition of the six other acetyltransferases [4]: < 10% | AT8-positive p-tau [5]: diminished

Oc1ccc(C=Cc2cc(O)cc(O)c2)cc1 [resveratrol]
tau ubiquitination ([3]; HEK293T cells transfected with SIRT1 H363Y mutant): not those with H363Y mutant | tau ubiquitination ([3]; HEK293T cells transfected with wildtype SIRT1): significantly increased
